From US5736380A, “Maltose-trehalose converting enzyme, and preparation and uses thereof” (Kabushiki Kaisha Hayashibara Seibutsu Kagaku Kenkyujo, priority 1993, dated 1998) come the findings set out here.

Test [1] concerns the target T1, maltose-trehalose converting enzyme derived from Thermus aquaticus (ATCC 33923) (Thermus thermophilus, UniProt O06458).
T1 construct: The culture obtained in Experiment 15 was centrifuged to obtain an about 0.28 kg of wet cells; endogenous in cells; host or cells: Thermus aquaticus (ATCC 33923), enzyme purified from the disrupted wild-type cells
T1 sequence (O06458 1-963): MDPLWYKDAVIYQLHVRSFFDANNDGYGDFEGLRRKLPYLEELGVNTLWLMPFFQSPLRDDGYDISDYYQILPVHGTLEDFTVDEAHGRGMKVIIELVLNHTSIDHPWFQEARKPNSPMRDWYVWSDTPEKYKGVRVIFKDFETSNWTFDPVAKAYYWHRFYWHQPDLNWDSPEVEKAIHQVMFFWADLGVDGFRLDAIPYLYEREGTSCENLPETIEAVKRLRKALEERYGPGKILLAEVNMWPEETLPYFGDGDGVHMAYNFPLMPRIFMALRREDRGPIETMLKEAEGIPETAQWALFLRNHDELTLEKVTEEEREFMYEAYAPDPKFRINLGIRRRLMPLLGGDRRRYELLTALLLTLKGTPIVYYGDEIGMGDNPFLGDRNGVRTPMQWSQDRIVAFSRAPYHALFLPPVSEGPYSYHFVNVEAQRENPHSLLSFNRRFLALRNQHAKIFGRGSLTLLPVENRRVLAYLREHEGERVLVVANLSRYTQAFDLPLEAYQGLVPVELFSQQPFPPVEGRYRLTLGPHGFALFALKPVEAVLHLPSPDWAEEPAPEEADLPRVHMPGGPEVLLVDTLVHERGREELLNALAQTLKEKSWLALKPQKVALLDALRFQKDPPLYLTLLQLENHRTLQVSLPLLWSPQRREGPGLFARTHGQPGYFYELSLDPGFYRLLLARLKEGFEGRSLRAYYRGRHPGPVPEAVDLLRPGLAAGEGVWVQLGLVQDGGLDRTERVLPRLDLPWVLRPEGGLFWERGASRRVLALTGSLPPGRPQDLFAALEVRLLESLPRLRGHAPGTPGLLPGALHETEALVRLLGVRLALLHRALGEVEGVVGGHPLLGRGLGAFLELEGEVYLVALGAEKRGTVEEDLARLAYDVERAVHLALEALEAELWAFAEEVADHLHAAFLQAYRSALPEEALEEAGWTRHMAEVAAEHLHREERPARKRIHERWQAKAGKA
Nature of the test: Inhibition of enzyme activity. The note with it: one mM Cu^++ or Hg^++, 50 mM Tris-HCl buffer. It counts as biochemical. The method, then: (§1) The activity of the present maltose-trehalose converting enzyme is assayed as follows: One ml of an enzyme solution is added to one ml of 20 w/v % maltose as a substrate in 10 mM phosphate buffer (pH 7.0), and the mixture solution is incubated at 25° C., 35° C. or 60° C. for 60 min, followed by the heating the solution at 100° C. for 10 min to suspend the enzymatic reaction. To the resultant reaction mixture is precisely diluted by 11-fold with 50 mM phosphate buffer (pH 7.5), and 0.4 ml of the diluted solution is admixed with 0.1 ml of a trehalase solution having one unit/ml of trehalase. The resultant solution is incubated at 45° C. for 120 min, followed by determining the amount of glucose by the glucose-oxidase method. As a control, by using trehalase and an enzyme solution, which were preheated at 100° C. for 10 min to inactivate the enzyme, the activity of the enzyme solution is assayed similarly as above. With the above assay, the content of trehalose, formed by the present maltose-trehalose converting enzyme, is determined based on the amount of glucose formed, and one unit activity of the enzyme is defined as the amount of enzyme which forms one μmole of trehalose per minute. As regards to the reaction temperature, it is set to 25° C. for the enzyme of a microorganism of the genus Pimelobacter; 35° C. for that of the genus Pseudomonas; and 60° C. for that of the genus Thermus.
Effects of temperature and pH on the activity of the present enzyme were studied in accordance with the method as used for assaying the enzyme activity. […] The thermal stability of the enzyme was determined by incubating it in 50 mM phosphate buffers (pH 7.0) in test tubes at different temperatures for 60 min, cooling the test tubes with cold water, and assaying the residual enzyme activity in each buffer. The pH stability of the enzyme was determined by incubating it in 50 mM phosphate buffers having different pHs at 60° C. for 60 min, adjusting the resultant buffers to pH 7.0, and assaying the residual enzyme activity in each buffer.

Test [2] relates to maltose-trehalose converting enzyme. Nature of the test: Inhibition of activity of the present enzyme. The test is classed as biochemical, microorganisms. The following applies: one mM Cu^++, Hg^++ and Tris-HCl buffer. The method, then: as §1, with “The resultant solution is incubated at 45° C. for 120 min, followed by determining the amount of glucose by the glucose-oxidase method.” left out, “With the above assay, the content of trehalose, formed by the present maltose-trehalose converting enzyme, is determined based on the amount of glucose formed, and one unit activity of the enzyme is defined as the amount of enzyme which forms one μmole of trehalose per minute.” left out

Entries after “also recorded” stand apart in the source; their conditions may differ. Counter-ions that a name gives are not always drawn.

With `[Hg+2]` [Hg^++], the Inhibition of activity entry is “inhibited; also recorded: inhibitory” in test [1] and “inhibited” in test [2].

For `[Cu+2]` [Cu^++], the Inhibition of activity result was “inhibited; also recorded: inhibitory” in test [1] and “inhibited” in test [2].

On to `NC(CO)(CO)CO` [Tris-HCl buffer], for which the Inhibition of activity result in test [1] is “inhibited; also recorded: inhibitory”; in test [2] it was “inhibited”.
